From patent US5082845A, “Therapeutic xanthine derivatives for the treatment of peptic ulcer disease” (Hoechst Japan Limited, priority 1988, dated 1992)

Key:
mice = assay: in vivo; conditions: acute
Experimental: (§1) LD50 values of the compounds of this invention were determined after intravenous injection or intraperitoneal administration to mice for acute toxicity test. The studies were carried out using male and female NMRI mice (n=3/group) having a body weight between 19-21 g.

[1] = system: stress-induced gastric ulcer in rats; assay: Protective effect on gastric ulcer induced by restraint plus water-immersion stress in rats; type: in vivo, male Sprague-Dawley rats; conditions: 10 mg/kg po; for Ulcer index: mean ± S.E.; for inhibition in vivo at 10 mg/kg: Rattus norvegicus, stress-induced ulcer
Experimental: 1.1 Protective Effect on Gastric Ulcer Induced by Restraint Plus Water-Immersion Stress in Rats
Male Sprague-Dawley rats weighing 250-300 g were used in groups of 5-34. The animals were given the compounds by the oral route after fasting overnight. Immediately, under light ether anesthesia they were placed in a restraint box and immersed in water at 20° C. for 6 or 7 hours. Then the animals were sacrificed, and their stomachs were isolated, inflated with 4 ml of 1% formalin for 10 minutes, opened along the greater curvature, and examined for the presence of gastric erosions. The longest axis of each erosion induced on the glandular section of the stomach was measured, and the sum of the lengths was defined as an ulcer index.

[2] = system: ethanol-induced gastric ulcer in rats; assay: Protective effect on ethanol-induced gastric ulcer in rats; type: in vivo, male Sprague-Dawley rats; conditions: 10 mg/kg po; for Ulcer index: mean ± S.E.; for inhibition in vivo at 10 mg/kg: Rattus norvegicus
Experimental: 1.2 Protective Effect on Ethanol-Induced Gastric Ulcer in Rats
Male Sprague-Dawley rats weighing 250-300 g were used in groups of 5-24. After fasting overnight, the animals were given orally the compounds. Thirty minutes later they received absolute ethanol (1 ml/body) orally and were sacrificed after 60 minutes. The stomach was removed and examined for erosions. The ulcer index was obtained in the same way as under 1.1.

in vivo = conditions: mouse, in vivo, mice
Experimental: as §1

peptic ulcer disease = conditions: Ter. Arkh. 57, 52-55, 1985; cited from earlier work
[3] = series with control (distilled water) 19.7 ± 2.9 mm
[4] = series with control 19.7 ± 2.9 mm
[5] = series with control (distilled water) 164.7 ± 19.4 mm
[6] = series with control 164.7 ± 19.4 mm
[7] = series with control (distilled water) 26.2 ± 1.6 mm
[8] = series with control 26.2 ± 1.6 mm
[9] = series with control (distilled water) 111.6 ± 10.4 mm
[10] = series with control 111.6 ± 10.4 mm
[11] = ip, intraperitoneal administration, 7 days (footnote b)
[12] = series with control (10% EtOH) 118.8 ± 9.6 mm

| Structure (SMILES) | Ulcer index [1, 3] | inhibition in vivo at 10 mg/kg [1, 4] | Ulcer index [1, 7] | inhibition in vivo at 10 mg/kg [1, 8] | LD50 at 168 h (in vivo; intravenous, n=3/group, 7 days) | other results |
| --- | --- | --- | --- | --- | --- | --- |
| CCCn1c(=O)c2c(ncn2CCCCC(O)CO)n(CC)c1=O (stereo not shown) [Compound 1] | 2.7 ± 0.9 mm | 86.3% | – | – | – | toxicity (in words) (mice): low toxicity; Ulcer index [2, 5]: 6.7 ± 2.1 mm; inhibition in vivo at 10 mg/kg [2, 6]: 95.8% |
| CCn1c(=O)n(C(C)C)c(=O)c2c1ncn2CCCCC(O)CO (stereo not shown) [Compound 2] | – | – | 11.5 ± 2.1 mm | 56% | – | Ulcer index [2, 9]: 6.7 ± 2.8 mm; inhibition in vivo at 10 mg/kg [2, 10]: 94% |
| CCCCn1c(=O)c2c(ncn2CCCCC(O)CO)n(CC)c1=O (stereo not shown) [Compound 3] | 6.0 ± 1.9 mm | 69.6% | – | – | – | Ulcer index [2, 5]: 5.3 ± 3.3 mm; inhibition in vivo at 10 mg/kg [2, 6]: 96.8% |
| CCCCCn1c(=O)c2c(ncn2CCCCC(O)CO)n(CC)c1=O (stereo not shown) [Compound 4] | – | – | 9.2 ± 1.9 mm | 64.7% | > 200 mg/kg | Ulcer index [2, 9]: 15.6 ± 5.8 mm; inhibition in vivo at 10 mg/kg [2, 10]: 86% |
| CCn1c(=O)n(CC(C)C)c(=O)c2c1ncn2CCCCC(O)CO (stereo not shown) [Compound 5] | – | – | 7.1 ± 1.8 mm | 72.9% | > 200 mg/kg | – |
| C=CCn1c(=O)c2c(ncn2CCCCC(O)CO)n(CC)c1=O (stereo not shown) [Compound 6, 1-Allyl-3-ethyl-7-(5,6-dihydroxyhexyl)-xanthine] | – | – | 7.0 ± 0.9 mm | 73.2% | > 200 mg/kg | Ulcer index [2, 9]: 10.7 ± 1.4 mm; inhibition in vivo at 10 mg/kg [2, 10]: 90.4% |
| CCn1c(=O)n(CC(C)=O)c(=O)c2c1ncn2CCCCC(O)CO (stereo not shown) [Compound 7, 3-Ethyl-7-(5,6-dihydroxyhexyl)-1-(2-oxopropyl)-xanthine] | – | – | 20.4 ± 4.1 mm | 21.9% | > 200 mg/kg | – |
| CCn1c(=O)n(CC(C)O)c(=O)c2c1ncn2CCCCC(O)CO (stereo not shown) [Compound 8, 3-Ethyl-7-(5,6-dihydroxyhexyl)-1-(2-hydroxypropyl)-xanthine] | – | – | 20.7 ± 4.6 mm | 21% | > 200 mg/kg | – |
| CCCn1c(=O)n(CCCCC(C)=O)c(=O)c2c1ncn2CCCCC(O)CO (stereo not shown) [Compound 9, 7-(5,6-Dihydroxyhexyl)-1-(5-oxohexyl)-3-n-propylxanthine] | – | – | 20.2 ± 5.8 mm | 22.9% | > 200 mg/kg | – |
| CCCCn1c(=O)c2c(ncn2CCCCC(O)CO)n(C)c1=O (stereo not shown) [Compound 10] | – | – | 4.5 ± 1.4 mm | 82.8% | – | Ulcer index [2, 9]: 1.1 ± 0.5 mm; inhibition in vivo at 10 mg/kg [2, 10]: 99% |
| CC(=O)CCCCn1c(=O)c2c(ncn2CCCCC(O)CO)n(C)c1=O (stereo not shown) [Compound 11, 7-(5,6-dihydroxyhexyl)-3-methyl-1-(5-oxohexyl)-xanthine] | – | – | 13.8 ± 1.7 mm | 47.4% | > 200 mg/kg | – |
| CCCn1c(=O)c2c(ncn2CCCC(O)C(C)O)n(CC)c1=O (stereo not shown) [Compound 12] | – | – | 4.3 ± 0.8 mm | 83.5% | > 200 mg/kg | – |
| CCCn1c(=O)c2c(ncn2CCCCCC(O)CO)n(CC)c1=O (stereo not shown) [Compound 13] | – | – | 8.9 ± 2.1 mm | 66% | 200 to 400 mg/kg | Ulcer index [2, 9]: 5.0 ± 2.2 mm; inhibition in vivo at 10 mg/kg [2, 10]: 95.5% |
| CCCn1cnc2c1c(=O)n(CCCCC(O)CO)c(=O)n2CC (stereo not shown) [Compound 14] | – | – | 10.4 ± 1.9 mm | 60.2% | – | LD50 at 168 h (in vivo; [11]): 300 to 600 mg/kg |
| CCCn1c(=O)c2c(ncn2CCCCC(C)O)n(C)c1=O (stereo not shown) [Compound 15] | 2.2 ± 0.9 mm | 88.9% | – | – | – | LD50 at 168 h (in vivo; intravenous, method of LitchfieldWilcoxon using 10 mice/dose (footnote a)): 123 mg/kg |
| CCCCn1c(=O)c2c(ncn2CCCCC(C)O)n(C)c1=O (stereo not shown) [Compound 16] | – | – | 10.6 ± 0.9 mm | 59.4% | 100 to 200 mg/kg | Ulcer index [2, 9]: 4.1 ± 0.8 mm; inhibition in vivo at 10 mg/kg [2, 10]: 96.3% |
| CCCCCCn1c(=O)c2c(ncn2CCCCC(C)O)n(C)c1=O (stereo not shown) [Compound 17] | – | – | – | – | – | LD50 at 168 h (in vivo; [11]): 500 to 1000 mg/kg; Ulcer index [2, 12]: 13.4 ± 5.2 mm; inhibition in vivo at 10 mg/kg [2, 12]: 88.7% |
| C=CCn1c(=O)c2c(ncn2CCCCC(C)O)n(C)c1=O (stereo not shown) [Compound 18, 1-Allyl-7-(5-hydroxyhexyl)-3-methylxanthine] | 15.3 ± 2.1 mm | 22.3% | – | – | – | LD50 at 168 h (in vivo; [11]): 250 to 500 mg/kg |
| CC(=O)Cn1c(=O)c2c(ncn2CCCCC(C)O)n(C)c1=O (stereo not shown) [Compound 19, 7-(5-Hydroxyhexyl)-3-methyl-1-(2-oxopropyl)-xanthine] | – | – | 15.0 ± 2.4 mm | 42.8% | > 200 mg/kg | – |
| CC(=O)CCCCn1c(=O)c2c(ncn2CC(C)O)n(C)c1=O (stereo not shown) [Compound 20] | 6.9 ± 2.1 mm | 65% | – | – | > 200 mg/kg | – |
| C=CCn1cnc2c1c(=O)n(CCCCC(C)O)c(=O)n2C (stereo not shown) [Compound 21, 7-allyl-1-(5-hydroxyhexyl)-3-methylxanthine] | – | – | 13.4 ± 3.2 mm | 48.9% | 100 to 200 mg/kg | – |
| CCn1c(=O)c2c(ncn2CCCCC(C)=O)n(C)c1=O [Compound 22] | 8.0 ± 4.2 mm | 59% | – | – | – | LD50 at 168 h (in vivo; [11]): 200 to 400 mg/kg |
| CC(=O)Cn1cnc2c1c(=O)n(CCCCC(C)O)c(=O)n2C (stereo not shown) [Compound 23, 1-(5-Hydroxyhexyl)-3-methyl-7-(2-oxopropyl)-xanthine] | 15.8 ± 4.6 mm | 19.8% | – | – | > 200 mg/kg | – |
| CC(=O)CCCCn1cnc2c1c(=O)n(CC(C)=O)c(=O)n2C [Compound 24, 3-Methyl-7-(5-oxohexyl)-1-(2-oxopropyl)-xanthine] | 10.3 ± 3.5 mm | 47.7% | – | – | > 200 mg/kg | – |
| CC(=O)CCCCn1c(=O)c2c(ncn2C)n(C)c1=O [Compound 25, 1,2,3,6-tetrahydro-3,7-dimethyl-1-(5-oxohexyl)-purine-2,6-dione, reference compound] | – | 12.7% | – | – | – | inhibition in vivo at 10 mg/kg [2, 6]: 78.8%; antiulcer effects (in words) (peptic ulcer disease): antiulcer effects |
